For test [1], the target named is T1, NOD2 (Homo sapiens, UniProt Q9HC29).
T1 construct: host or cells: HEK293T
In words: NF-κB-luciferase reporter assay in HEK293T cells transfected with NOD2. In kind it is cell-based. To be noted: for response of NOD2-transfected cells to inflammatory cytokines: acts via endogenous receptors, compared with fsNOD2 cells. Here is the method: Human embryonic kidney HEK293T cells (American Type Culture Collection (“ATCC,”) Manassas, Va., USA) were cultured in Dulbecco's modified Eagle's medium (Invitrogen, Carlsbad, Calif., USA) supplemented with 10% fetal calf serum (“FCS”) (PAA Laboratories GmbH, Pasching, Austria). HEK293T cells were seeded into 24 well cell culture plates at a density of 10^5 cells/ml (500 μl/well) and transfected with various expression plasmids, as previously described (Girardin 2003a) (FIG. 1).
(§1) Transfection was performed as described by Girardin et al., 2003a. HEK293T cells were transfected overnight using 1% FuGENE 6 transfection reagent (Roche Diagnostics, Mannheim, Germany) with 75 ng of the reporter plasmid pNF-kB-Luc (Stratagene, La Jolla, Calif. USA) and 1 ng p-UNO-hNODt (InvivoGen, San Diego, Calif. USA) or fsNOD2 expression plasmids (Begue et al. (2006); Chamaillard et al. (2003)). The plasmid pNF-κB-Luc is a 5.7 kb cis-reporting pNF-κB-Luc plasmid comprising an NF-κB enhancer region and a firefly luciferase gene controlled by a synthetic promoter that contains direct repeats of the transcription recognition sequences for the binding sites for NF-κB (Stratagene, Carlsbad, Calif., USA). The NOD2 3020InsC frameshift mutation was introduced using the QuikChange XL site-directed mutagenesis kit (Stratagene, Carlsbad, Calif., USA). The entire coding region was verified by sequencing and the size of the encoded product was verified by immunoblotting (Girardin et al., 2003b). A total plasmid concentration of 250 ng was achieved by addition of pcDNA3.1 vector.
Following a twenty hour transfection period, 50 μl of plasma was added into the wells containing the transfected cells. Purified peptidoglycan, diluted in plasma, from S. aureus (Sigma, St. Louis, Mo., USA) and E. coli (kind gift of Dominique Mengin-Lecreulx or InviroGen, San Diego, Calif., USA) served as positive controls. After six hours of peptidoglycan stimulation, the cell supernatant was removed and the cells were lysed with 100 μl of lysis buffer (25 mM Tris-phosphate pH 8, 8 mM MgCl2, 1 mM dithiothreitol, 15% glycerol, and 1% Triton X-100). Luciferase expression was measured from a 10 μl aliquot of cell extract using a microplate luminometer (LB960 luminometer centro, Berthold Technologies, Bad Wildbad, Germany) after addition of 100 μl of substrate buffer to a final concentration of 1.8 mM luciferin and 1 mM ATP. Each measurement was performed in triplicate. The detection level of the assay is at least 0.15 ug/ml PGN, determined by adding purified PGN to healthy donor plasma.
To validate the experimental system, NF-κB activation in HEK293T cells co-transfected with pNF-κB-Luc and pUNO-hNOD2 was tested in response to stimulation with both MPD and PGN derived from S. aureus (FIG. 2). […]
In general terms: In a reporter assay the amount or activity of a reporter protein is the signal.

Test [2] has as its target T2, NOD2 3020InsC frameshift mutant (fsNOD2) (Homo sapiens, UniProt Q9HC29, L1007P).
T2 construct: expressed in transfected cells; host or cells: HEK293T
In words: NF-κB-luciferase reporter assay in HEK293T cells transfected with frameshift NOD2 (fsNOD2). The format is cell-based. To be noted: HEK293T co-transfected with pNF-κB-Luc and NOD2 3020InsC. Here is the method: as §1
The NOD2 3020InsC variant comprises a Leu1007-Pro substitution in the tenth leucine-rich region followed by a premature stop codon. It activates the NF-κB pathway to the same extent as wild-type NOD2 when overexpressed, but is unable to detect MDP or PGN (Girardin et al., 2003b).
The specificity of the system was checked by transfecting an expression plasmid for frameshift NOD2 (fsNOD2), a mutant unable to activate NF-κB in response to MDP (FIG. 11E).

T2 sequence (Q9HC29 1-1007 L1007P): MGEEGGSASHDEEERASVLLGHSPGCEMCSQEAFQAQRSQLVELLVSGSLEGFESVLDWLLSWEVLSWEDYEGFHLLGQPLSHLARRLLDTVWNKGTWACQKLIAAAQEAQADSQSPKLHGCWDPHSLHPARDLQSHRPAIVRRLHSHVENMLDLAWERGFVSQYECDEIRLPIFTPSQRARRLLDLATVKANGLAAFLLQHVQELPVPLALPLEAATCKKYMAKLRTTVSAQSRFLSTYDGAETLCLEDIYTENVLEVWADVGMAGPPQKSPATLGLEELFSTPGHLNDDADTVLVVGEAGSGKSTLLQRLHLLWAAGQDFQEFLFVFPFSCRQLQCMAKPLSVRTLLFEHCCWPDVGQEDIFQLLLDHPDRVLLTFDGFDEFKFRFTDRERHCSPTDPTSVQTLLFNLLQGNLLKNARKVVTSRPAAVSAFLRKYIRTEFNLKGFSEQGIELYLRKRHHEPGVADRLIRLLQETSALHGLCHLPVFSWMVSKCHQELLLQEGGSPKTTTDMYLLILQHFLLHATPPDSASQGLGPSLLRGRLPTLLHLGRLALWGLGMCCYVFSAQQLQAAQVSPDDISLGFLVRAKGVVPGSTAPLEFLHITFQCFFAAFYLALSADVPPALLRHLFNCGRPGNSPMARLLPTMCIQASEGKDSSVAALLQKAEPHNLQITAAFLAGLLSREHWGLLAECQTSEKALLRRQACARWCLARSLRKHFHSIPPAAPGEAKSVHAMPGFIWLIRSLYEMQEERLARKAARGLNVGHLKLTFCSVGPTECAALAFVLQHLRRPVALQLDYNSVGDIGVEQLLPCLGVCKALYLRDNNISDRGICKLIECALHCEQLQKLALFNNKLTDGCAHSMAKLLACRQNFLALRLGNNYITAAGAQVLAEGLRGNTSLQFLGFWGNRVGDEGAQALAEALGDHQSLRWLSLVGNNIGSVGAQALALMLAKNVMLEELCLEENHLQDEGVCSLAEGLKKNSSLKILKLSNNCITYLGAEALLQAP
T1 sequence (Q9HC29 whole entry): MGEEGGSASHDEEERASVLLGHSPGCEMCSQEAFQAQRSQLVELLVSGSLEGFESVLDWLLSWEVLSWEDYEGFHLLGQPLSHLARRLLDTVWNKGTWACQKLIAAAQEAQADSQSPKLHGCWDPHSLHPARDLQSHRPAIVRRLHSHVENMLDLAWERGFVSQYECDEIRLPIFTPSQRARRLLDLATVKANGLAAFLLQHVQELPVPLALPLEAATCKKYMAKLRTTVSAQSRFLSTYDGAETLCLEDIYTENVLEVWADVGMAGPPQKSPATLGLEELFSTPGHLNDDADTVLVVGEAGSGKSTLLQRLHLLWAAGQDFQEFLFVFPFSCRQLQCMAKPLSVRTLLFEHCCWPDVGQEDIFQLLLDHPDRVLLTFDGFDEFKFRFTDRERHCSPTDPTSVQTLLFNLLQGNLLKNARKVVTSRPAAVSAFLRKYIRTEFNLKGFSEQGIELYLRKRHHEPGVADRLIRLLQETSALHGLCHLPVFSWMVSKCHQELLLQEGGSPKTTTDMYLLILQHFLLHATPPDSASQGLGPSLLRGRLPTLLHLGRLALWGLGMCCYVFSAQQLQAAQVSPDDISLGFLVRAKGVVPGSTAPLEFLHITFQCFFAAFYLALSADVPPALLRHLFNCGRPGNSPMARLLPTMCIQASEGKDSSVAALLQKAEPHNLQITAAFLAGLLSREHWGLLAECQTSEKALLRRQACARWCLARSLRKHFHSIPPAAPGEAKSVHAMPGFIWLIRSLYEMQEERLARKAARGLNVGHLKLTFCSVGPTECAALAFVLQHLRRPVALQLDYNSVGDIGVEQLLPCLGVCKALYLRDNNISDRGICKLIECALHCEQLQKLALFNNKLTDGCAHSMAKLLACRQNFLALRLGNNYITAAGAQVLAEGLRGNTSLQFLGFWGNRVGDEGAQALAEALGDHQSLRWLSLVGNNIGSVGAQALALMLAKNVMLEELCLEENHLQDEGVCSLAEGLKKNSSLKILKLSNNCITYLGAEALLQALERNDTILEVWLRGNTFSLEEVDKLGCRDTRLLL

`CC(=O)N[C@H]1C(O)O[C@H](CO)[C@@H](O)[C@@H]1O[C@H](C)C(=O)N[C@@H](C)C(=O)N[C@H](CCC(=O)O)C(N)=O` (mixture of isomers) [MDP, muramyl dipeptide]: the “NF-κB activation (luciferase expression)” value in test [1] (300 pM MDP, HEK293T co-transfected with pNF-κB-Luc and pUNO-hNOD2) is listed as “induced NF-κB activation”. Also, in test [1] (6 hours of incubation, without plasma), the “signal in NOD2 reporter system (luciferase, RLU)” value was “positive signals”. Besides, in test [2], the “luciferase / NF-κB response in fsNOD2-transfected cells” value (“luciferase / NF-κB response” for short) is “no increase in luciferase”.

Consider tumor necrosis factor-α [TNF-α], for which, in test [1], the “response of NOD2-transfected cells to inflammatory cytokines” value was “similarly responsive”. For the same molecule, in test [2], the “luciferase / NF-κB response” value is on record as “similarly responsive”.

Consider interleukin 1β [IL-1β], for which the “response of NOD2-transfected cells to inflammatory cytokines” value in test [1] is “similarly responsive”. The “luciferase / NF-κB response” value in test [2] is given as “similarly responsive”.

These data come from patent US20090317838A1, “DETECTION OF BACTERIAL PEPTIDOGLYCAN-LIKE COMPOUNDS” (priority 2008, published 2009).
